Assay results from ChEMBL document CHEMBL1201862, “PubChem BioAssay data set” (2004).
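Briefly, cells in 96-well plates were exposed to five compound concentrations for 48 h, and endpoints were estimated by linear interpolation. GI50 is the concentration that inhibits growth by half.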 Calls of active or inactive are those of the source. Cut-off read from the data, not from the text of the source: active = GI50 up to about 1.1 µM and inactive = higher.

Columns and labels:
Experiment in all cases: DTP human tumour cell line panel, 48 h
RXF 393 = system: RXF 393
SNB-75 = system: SNB-75
KM12 = system: KM12
K562 = system: K562
HOP-18 = system: HOP-18
DLD-1 = system: DLD-1
LXFL 529 = system: LXFL 529
XF498 = system: XF498
DMS-273 = system: DMS-273
SNB-19 = system: SNB-19
HCC 2998 = system: HCC 2998
DMS-114 = system: DMS-114
TK-10 = system: TK-10
SN12C = system: SN12C

Measured: GI50

Nc1nnc(CCC(=O)Nc2cc(Cl)ccc2Cl)n1N
inactive: RXF 393 > 100 µM | SNB-75 > 100 µM | KM12 > 100 µM | K562 > 100 µM | HOP-18 > 100 µM | DLD-1 > 100 µM | LXFL 529 > 100 µM | XF498 > 100 µM | DMS-273 > 100 µM | SNB-19 > 100 µM | HCC 2998 > 100 µM | DMS-114 > 100 µM | TK-10 > 100 µM | SN12C > 100 µM

Cc1c(N(Cc2ccccc2)Cc2ccccc2)nc(S(C)(=O)=O)nc1S(C)(=O)=O
inactive: RXF 393 1.57 µM | K562 2.08 µM | HOP-18 4.99 µM | DLD-1 1.87 µM | LXFL 529 1.91 µM | XF498 1.73 µM | DMS-273 2.2 µM | SNB-19 13.4 µM | HCC 2998 1.79 µM | DMS-114 1.82 µM | TK-10 4.2 µM | SN12C 2.08 µM

COC(=O)C(C(=O)C(=O)Nc1ccc(C)cc1C)c1csc(-n2nc(-c3ccccc3)cc2-c2ccccc2)n1 (stereo not drawn)
inactive: RXF 393 92 µM | SNB-75 6.37 µM | KM12 65.2 µM | K562 93.5 µM | HOP-18 40.4 µM | DLD-1 > 100 µM | LXFL 529 > 100 µM | XF498 > 100 µM | DMS-273 > 100 µM | SNB-19 > 100 µM | HCC 2998 > 100 µM | DMS-114 23.8 µM | TK-10 > 100 µM | SN12C > 100 µM

N=C(NNS(=O)(=O)c1ccccc1)Oc1ccc(Cl)cc1
inactive: RXF 393 11.3 µM | SNB-75 > 100 µM | KM12 > 100 µM | K562 24.8 µM | HOP-18 > 100 µM | DLD-1 90.2 µM | LXFL 529 51.9 µM | XF498 > 100 µM | DMS-273 > 100 µM | SNB-19 > 100 µM | HCC 2998 > 100 µM | DMS-114 69.5 µM | TK-10 > 100 µM | SN12C > 100 µM

COC[C@@H](Cc1ccc(OC)c(OC)c1)[C@@H](COC)Cc1ccc(OC)c(OC)c1
inactive: RXF 393 > 100 µM | SNB-75 > 100 µM | KM12 > 100 µM | K562 > 100 µM | HOP-18 > 100 µM | DLD-1 > 100 µM | LXFL 529 81.7 µM | XF498 > 100 µM | DMS-273 76.6 µM | SNB-19 > 100 µM | HCC 2998 > 100 µM | DMS-114 56.5 µM | TK-10 > 100 µM | SN12C > 100 µM
